# Source: PubChem BioAssay AID1918952 (Molecular Pharmacology Branch, DTP, NCI, 2023)
# Tested on: LG0703-F948-PDC complex spheroid viability
# Test: Anticancer human tumor LG0703-F948-PDC patient-derived lung adenocarcinoma cell line growth inhibition
# Conditions: for IC50: curve of first compound; for viability, T/C: stronger effect = lower value
# Outline: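 Multicellular complex spheroids of tumor cells with human endothelial cells (HUVEC) and mesenchymal stem cells; the LSD1 inhibitor iadademstat was combined with standard-of-care or investigational agents. Top concentration at or near clinical Cmax, half-log dilutions; final DMSO ≤0.25%.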
# [1] = second compound 0.1 µM, first compound 0.0316 µM
# [2] = second compound 0.1 µM, first compound 0.1 µM
# [3] = second compound 0.1 µM, first compound 0.316 µM
# [4] = second compound 0.1 µM, first compound 1 µM
# [5] = second compound 0.1 µM, first compound 3.16 µM
# [6] = second compound 0.1 µM, first compound 10 µM
# [7] = second compound 0.316 µM, first compound 0.0316 µM
# [8] = second compound 0.316 µM, first compound 0.1 µM
# [9] = second compound 0.316 µM, first compound 0.316 µM
# [10] = second compound 0.316 µM, first compound 1 µM
# [11] = second compound 0.316 µM, first compound 3.16 µM
# [12] = second compound 0.316 µM, first compound 10 µM
# [13] = second compound 1 µM, first compound 0.0316 µM
# [14] = second compound 1 µM, first compound 0.1 µM
# [15] = second compound 1 µM, first compound 0.316 µM
# [16] = second compound 1 µM, first compound 1 µM
# [17] = second compound 1 µM, first compound 3.16 µM
# [18] = second compound 1 µM, first compound 10 µM
# [19] = second compound 3.16 µM, first compound 0.0316 µM
# [20] = second compound 3.16 µM, first compound 0.1 µM
# [21] = second compound 3.16 µM, first compound 0.316 µM
# [22] = second compound 3.16 µM, first compound 1 µM
# [23] = second compound 3.16 µM, first compound 3.16 µM
# [24] = second compound 3.16 µM, first compound 10 µM
# [25] = second compound 10 µM, first compound 0.0316 µM
# [26] = second compound 10 µM, first compound 0.1 µM
# [27] = second compound 10 µM, first compound 0.316 µM
# [28] = second compound 10 µM, first compound 1 µM
# [29] = second compound 10 µM, first compound 3.16 µM
# [30] = second compound 10 µM, first compound 10 µM
# 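Further: spheroids exposed to agents for seven days before readout.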
# 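Wherever viability, T/C is given: 100% = DMSO vehicle control wells as normalization base.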
smiles,measurement,setting,value
CC(C)c1c(-c2ccccc2)nc2c(C#N)c[nH]n2c1=O + NC1CCC(NC2CC2c2ccccc2)CC1,IC50,second compound 0.1 µM,> 10 µM
same,IC50,second compound 0.316 µM,> 10 µM
same,IC50,second compound 1 µM,> 10 µM
same,IC50,second compound 3.16 µM,> 10 µM
same,IC50,second compound 10 µM,> 10 µM
same,"viability, T/C",[1],101%
same,"viability, T/C",[2],95.8%
same,"viability, T/C",[3],85.5%
same,"viability, T/C",[4],90.1%
same,"viability, T/C",[5],102%
same,"viability, T/C",[6],78.3%
same,"viability, T/C",[7],98.1%
same,"viability, T/C",[8],104%
same,"viability, T/C",[9],97.4%
same,"viability, T/C",[10],95%
same,"viability, T/C",[11],101%
same,"viability, T/C",[12],85.9%
same,"viability, T/C",[13],110%
same,"viability, T/C",[14],102%
same,"viability, T/C",[15],106%
same,"viability, T/C",[16],83%
same,"viability, T/C",[17],98.4%
same,"viability, T/C",[18],89.1%
same,"viability, T/C",[19],106%
same,"viability, T/C",[20],108%
same,"viability, T/C",[21],108%
same,"viability, T/C",[22],105%
same,"viability, T/C",[23],107%
same,"viability, T/C",[24],94.1%
same,"viability, T/C",[25],110%
same,"viability, T/C",[26],119%
same,"viability, T/C",[27],113%
same,"viability, T/C",[28],105%
same,"viability, T/C",[29],100%
same,"viability, T/C",[30],85.8%
CC1COCCN1c1cc(-c2ccnn2C)c2ccnc(-c3ccn[nH]3)c2n1 (stereo not given) + NC1CCC(NC2CC2c2ccccc2)CC1,IC50,second compound 0.1 µM,0.0438 µM
same,IC50,second compound 0.316 µM,0.0485 µM
same,IC50,second compound 1 µM,0.0426 µM
same,IC50,second compound 3.16 µM,0.0711 µM
same,IC50,second compound 10 µM,0.0425 µM
same,"viability, T/C","second compound 0.1 µM, first compound 0.00316 µM",76.3%
same,"viability, T/C","second compound 0.1 µM, first compound 0.01 µM",71.6%
same,"viability, T/C",[1],52.8%
same,"viability, T/C",[2],37.5%
same,"viability, T/C",[3],25.5%
same,"viability, T/C",[4],13.5%
same,"viability, T/C","second compound 0.316 µM, first compound 0.00316 µM",69.9%
same,"viability, T/C","second compound 0.316 µM, first compound 0.01 µM",79.5%
same,"viability, T/C",[7],54.6%
same,"viability, T/C",[8],36.2%
same,"viability, T/C",[9],26.2%
same,"viability, T/C",[10],16%
same,"viability, T/C","second compound 1 µM, first compound 0.00316 µM",99.8%
same,"viability, T/C","second compound 1 µM, first compound 0.01 µM",72.4%
same,"viability, T/C",[13],60.2%
same,"viability, T/C",[14],34.7%
same,"viability, T/C",[15],21.6%
same,"viability, T/C",[16],17.6%
same,"viability, T/C","second compound 3.16 µM, first compound 0.00316 µM",78.8%
same,"viability, T/C","second compound 3.16 µM, first compound 0.01 µM",85.8%
same,"viability, T/C",[19],77%
same,"viability, T/C",[20],38.1%
same,"viability, T/C",[21],24.2%
same,"viability, T/C",[22],13.9%
same,"viability, T/C","second compound 10 µM, first compound 0.00316 µM",82.3%
same,"viability, T/C","second compound 10 µM, first compound 0.01 µM",78.9%
same,"viability, T/C",[25],55.6%
same,"viability, T/C",[26],30.1%
same,"viability, T/C",[27],21.1%
same,"viability, T/C",[28],11.5%
CC1COCCN1c1cc(C2(S(C)(=N)=O)CC2)nc(-c2ccnc3[nH]ccc23)n1 (stereo not given) + NC1CCC(NC2CC2c2ccccc2)CC1,IC50,second compound 0.1 µM,4.99 µM
same,IC50,second compound 0.316 µM,4.8 µM
same,IC50,second compound 1 µM,5.73 µM
same,IC50,second compound 3.16 µM,4.93 µM
same,IC50,second compound 10 µM,4.13 µM
same,"viability, T/C",[1],107%
same,"viability, T/C",[2],108%
same,"viability, T/C",[3],103%
same,"viability, T/C",[4],94.4%
same,"viability, T/C",[5],64%
same,"viability, T/C",[6],28.4%
same,"viability, T/C",[7],111%
same,"viability, T/C",[8],112%
same,"viability, T/C",[9],94.8%
same,"viability, T/C",[10],96.3%
same,"viability, T/C",[11],59.5%
same,"viability, T/C",[12],30%
same,"viability, T/C",[13],113%
same,"viability, T/C",[14],104%
same,"viability, T/C",[15],99.6%
same,"viability, T/C",[16],100%
same,"viability, T/C",[17],77.5%
same,"viability, T/C",[18],23.8%
same,"viability, T/C",[19],122%
same,"viability, T/C",[20],118%
same,"viability, T/C",[21],117%
same,"viability, T/C",[22],96.4%
same,"viability, T/C",[23],66%
same,"viability, T/C",[24],25.5%
same,"viability, T/C",[25],131%
same,"viability, T/C",[26],129%
same,"viability, T/C",[27],110%
same,"viability, T/C",[28],88.1%
same,"viability, T/C",[29],63.8%
same,"viability, T/C",[30],14.2%
